From US20080235824A1, “Use of Esterase Genes as Selectable Markers for Transforming Plant Cells” (priority 2006, published 2008)

Key:
[1] = tested on: tobacco cultivar Xanthi leaf explants; assay: Agrobacterium transformation of tobacco with selection on detergent or kanamycin; type: cell-based, Nicotiana tabacum; details: tobacco Xanthi, pIPG786 nptII, 100 micrograms/ml kanamycin, 235 explants
Excerpt: Transgenic tobacco (Nicotiana tabacum) cultivar “Xanthi” plants were created using the Agrobacterium tumefaciens DNA delivery method [Horsch et al., 1985] using pIPG833. Selection was on 1% or on 0.05% Tween 20 added to both shoot and root regeneration media. As a control for comparative purposes, pIPG786 was used (carrying the nptII gene for kanamycin resistance) for transformation and 100 micrograms/ml kanamycin was used for selection.
Transgenic tobacco (Nicotiana tabacum) cultivar “Xanthi” plants were created using the Agrobacterium tumefaciens DNA delivery method [Horsch et al., 1985] using pIPG833. Selection was on 1% or on 0.05% Span 20 added to both shoot and root regeneration media.
Transgenic tobacco (Nicotiana tabacum) cultivar “Xanthi” plants were created using the Agrobacterium tumefaciens DNA delivery method [Horsch et al., 1985] using pIPG875. Selection was on 1% Span 20 added to the shoot regeneration medium and 0.05% Span 20 added to the root regeneration medium.

[2] = tested on: tomato cultivar Micro-Tom leaf explants; assay: Agrobacterium transformation of tomato with selection on detergent or kanamycin; type: cell-based, Lycopersicon esculentum; details: tomato Micro-Tom, pIPG768 nptII, 100 micrograms/ml kanamycin, Exp. 1, 98 explants; for Transformation frequency (%): confirmed by PCR
Excerpt: Transgenic tomato (Lycopersicon esculentum) cultivar “Micro-Tom” plants were created using the Agrobacterium tumefaciens DNA delivery method [Riggs et al., 2001; Sun et al., 2006] using pIPG768. Selection was either on 1% Tween 20 added to both shoot and root regeneration media. As controls for comparative purposes, 100 micrograms/ml kanamycin was used.

[3] = tested on: tomato leaf explants; assay: Survival of tomato leaf explants on regeneration medium with detergents; type: cell-based, Lycoperisicon esculentum; details: 1% detergent; for Survival of tomato leaf explants on regeneration medium: surviving/total explants
Description: Tween 20 was similarly evaluated as a potential selective agent for use in tomato (Lycoperisicon esculentum) transformations by placing tomato leaf explants placed into tissue culture; Tween 20 was added to tomato regeneration (shooting) medium normally used in tomato transformations (Riggs et al., 2001) at a 1% concentration. Each treatment consisted of 40 sterilized leaf explants placed in four tissue culture plates carrying 10 explants each. Survival of the explants was assayed weekly over four weeks on these media.

[4] = tested on: geranium petiole explants; assay: Survival of geranium petiole explants on regeneration medium with detergents; type: cell-based, Pelargonium X hortorum; details: for Survival of geranium petiole explants on regeneration medium: surviving/total explants
Description: Tween 20, a nonionic, fatty acid ester detergent, was evaluated as a potential selective agent for use in geranium (Pelargonium X hortorum) transformation experiments by placing geranium petiole explants into tissue culture with the addition to Tween 20 to the regeneration (shooting) medium normally used in geranium transformations (Robichon et al., 1995). Tween 20 was added at three concentrations: 1%, 0.1% and 0.01%. Each treatment consisted of 40 sterilized petiole explants placed in four tissue culture plates carrying 10 explants each. Survival of the explants was assayed weekly over four weeks on these media. Potential selective agent Span 20, also a nonionic, fatty acid ester detergent, was similarly evaluated, except that concentrations of 1%, 0.5% and 0.25% were evaluated over a twelve week period of time. The nonionic detergent Triton X-100, which is not a fatty acid ester detergent, was included for comparative purposes.

[5] = Phenol red lipase/esterase assay with crude plant leaf extracts; type: biochemical; details: transiently plant-expressed enzyme or positive control
Excerpt: In this Figure, the first tube on the left (labeled “Buffer”) contains phenol red buffer and Tween 20 (the dark red color appears dark in this black and white figure); the second tube to the right (“SL”) has 4 Units of Sigma porcine pancreatic lipase added (the bright yellow color appears light); the third tube to the right (labeled “731”) has a twenty microliter droplet of a crude tomato plant leaf extract from leaves inoculated 4 days earlier with GV2260 carrying “empty” (ie., no lipase gene) expression vector pIPG731 (the dark red color appears dark), and the fourth tube to the right (“768 WI”) has a twenty microliter droplet of crude tomato plant leaf extract from leaves inoculated four days earlier with GV2260 carrying cloned bovine pregastric esterase expressed in pIPG768 (the bright yellow color appears light). Tomato leaf tissue particles may be seen floating in the third and fourth tubes to the right. […] The photo was taken 16 hrs. after start of the assay.
For transient expression assays of bovine PGE, the plant transformation and expression vectors constructed in Example 12 were moved into A. tumefaciens strain GV2260 by either electroporation or bacterial conjugation as described (Kapila et al., 1997). GV2260 carrying pIPG745 or pIPG746 was used for transient expression in tobacco, pepper, tomato, citrus, geranium, and rice plants as described (Kapila et al. 1997; Duan et al., 1999; Wroblewski et al. 2005). Cultures of Agrobacterium harboring the constructs of interest were grown in minimal medium in the presence of acetosyringone to induce the Agrobacterium vir genes. The optical density of the cultures was maintained at 0.008 for pepper and tomato and at 0.25 for citrus, geranium and rice. Strain GV2260 was flooded into healthy, young, fully expanded leaves of vigorous plants into the apoplastic space through open stomata by injection using a tuberculin syringe without a needle, flooding entire leaves. After 3-4 days, two grams of leaf tissue (fresh weight), was ground in liquid nitrogen to a fine powder, and 0.5 ml of ice cold phosphate buffered saline (PBS; 137 mM NaCl, 2.7 mM KCl, 10 mM potassium phosphate, pH 7.4) was added and mixed thoroughly at 4 C. The mixture was mixed on an orbital shaker at 4 C for 30 minutes, and plant debris was pelleted at 10,000×g for 15 minutes and discarded. The supernatants from these crude plant leaf extracts were directly used in lipase/esterase assays.
The second activity assay was a phenol red lipase/esterase assay using tributyrin, olive oil or Tween 20 as substrates as described by Singh et al. (2006), except that liquid medium, rather than solidified agar medium, was used. Twenty microliter droplets of crude plant leaf extracts and the positive control were placed in the tributyrin/phenol red medium containing tributyrin, olive oil or Tween 20 and incubated at 30 C overnight. […] Transient expression of bovine PGE was confirmed in tobacco, pepper, tomato, citrus, geranium, and rice plants.
For transient expression assays, the plant transformation and expression vectors constructed in Example 15 were moved into A. tumefaciens strain GV2260 by electroporation. GV2260 carrying pIPG823 was used for transient expression in tobacco and geranium plants exactly as described in Example 20. The supernatants from crude plant leaf extracts were directly used in phenol red lipase/esterase assays using tributyrin and olive oil as substrates exactly as described in Example 20.

## NC[C@H]1O[C@H](O[C@H]2[C@H](O)[C@@H](O[C@H]3O[C@H](CO)[C@@H](O)[C@H](N)[C@H]3O)[C@H](N)C[C@@H]2N)[C@H](O)[C@@H](O)[C@@H]1O [kanamycin, reference compound]
[1]
  No. of independent calli forming shoots: 55
  No. of rooted shoots: 55
[1]; confirmed by PCR
  Transformation frequency (%): 19%
[2]
  No. of independent calli forming shoots: 40
  No. of rooted shoots: 40
  Transformation frequency (%): 1%
[2]; listed as Kanamycin
  Transformation frequency (%): 1%

## Triton X-100
[3]; Week 1
  Survival of tomato leaf explants on regeneration medium: 40/40
[3]; Week 2
  Survival of tomato leaf explants on regeneration medium: 40/40
[3]; Week 3
  Survival of tomato leaf explants on regeneration medium: 10/40
[3]; Week 4
  Survival of tomato leaf explants on regeneration medium: 7/40
[3]; summary of Table 2
  Killing of tomato explants in tissue culture (in words): both less effective and unpredictable in killing
[4]; 0.01% detergent, Week 1
  Survival of geranium petiole explants on regeneration medium: 39/40
[4]; 0.01% detergent, Week 2
  Survival of geranium petiole explants on regeneration medium: 39/40
[4]; 0.01% detergent, Week 3
  Survival of geranium petiole explants on regeneration medium: 39/40
[4]; 0.01% detergent, Week 4
  Survival of geranium petiole explants on regeneration medium: 14/40
[4]; 0.1% detergent, Week 1
  Survival of geranium petiole explants on regeneration medium: 40/40
[4]; 0.1% detergent, Week 2
  Survival of geranium petiole explants on regeneration medium: 40/40
[4]; 0.1% detergent, Week 3
  Survival of geranium petiole explants on regeneration medium: 40/40
[4]; 0.1% detergent, Week 4
  Survival of geranium petiole explants on regeneration medium: 9/40
[4]; 1% detergent, Week 1
  Survival of geranium petiole explants on regeneration medium: 39/40
[4]; 1% detergent, Week 2
  Survival of geranium petiole explants on regeneration medium: 39/40
[4]; 1% detergent, Week 3
  Survival of geranium petiole explants on regeneration medium: 37/40
[4]; 1% detergent, Week 4
  Survival of geranium petiole explants on regeneration medium: 19/40
[4]; summary of Table 1
  Killing of geranium explants in tissue culture (in words): much less efficient and much more variable in killing

B1: nematode triglyceride lipase-cholesterol esterase: C. elegans triglyceride lipase-cholesterol esterase expressed in plants (protein)
chain: MKSLLLLFLLFLHTLCENVTTPNSEEDTDMTATPSTITPLLSTAQNPSLPKTSKLPLALKTPVPTFPFSSLATSDWLSSMPTIQTLLPPPLPLTTLEVPENENFGFTSLAPLWTLPTQPPAWSPMLDSPIKPIQNSMFPTFPTMPTLPTLPTLAPFTFPTLPPPTTMKPLNITIDPEALMDVPEIITHWGYPVETHKVVTVDGYILTLHRIPHSKNETSKSASKTPKPVVFLQHGLLCTSSIWLLNLPRQSAGYIFADQGYDVWLGNMRGNTYSKEHTRMTSADRRFWKFSWEEMARYDLPAMINYALKTTKRQNLYYVGHSQGALTMFAKMSEDPEMSKKIRKFFAMAPVARMSHVKGLFQNLGQIYEQYNLVYQVFGDGEFLTNNIFTKLLTDIFCDQAVNNPLCENFIFAVSGPNSNQFNNSRIGIYLAHNPAGTSSRNILHFAQMVKKKRMSRFDHGKDLNLKIYGAPSPPEYDIRKINSSIYLFYSDFDWLANPKDVEGFLIPMLPSKTLKKATKLRDFNHNDFLWGMRARKEIYDKIINTIKLDQRRVKLQNSMERFFERQSRNPTSGLDEETMMRLRNETMNLD
modifications: Caenorhabditis elegans
notes: C. elegans triglyceride lipase-cholesterol esterase expressed in plants
[5]
  Substrates utilized in phenol red lipase/esterase assay: utilized tributyrin and olive oil

B2: bovine PGE: bovine pregastric esterase, cloned from calf salivary glands and expressed in plants (protein)
chain: MWWLLVTVCFIHMSGNAFCFLGKIAKNPEASMNVSQMISYWGYPSEMHKVITADGYILQVYRIPHGKNNANHLGQRPVVFLQHGLLGSATNWISNLPKNSLGFLLADAGYDVWLGNSRGNTWAQEHLYYSPDSPEFWAFSFDEMAEYDLPSTIDFILRRTGQKKLHYVGHSQGTTIGFIAFSTNPTLAEKIKVFYALAPVATVKYTKSLFNKLALIPHFLFKIIFGDKMFYPHTFLEQFLGVEMCSRETLDVLCKNALFAITGVDNKNFNMSRLDVYIAHNPAGTSVQNTLHWRQAVKSGKFQAFDWGAPYQNLMHYHQPTPPIYNLTAMNVPIAVWSADNDLLADPQDVDLLLSKLSNLIYHKEIPNYNHLDFIWAMDAPQEVYNEIVSLMAEDKKEL
modifications: Bovine pregastric esterase cloned by IPG, translation product, with native leader and two amino acids added to form an ER retention signal sequence
notes: bovine pregastric esterase, cloned from calf salivary glands and expressed in plants
[5]
  Substrates utilized in phenol red lipase/esterase assay: utilized all three substrates: tributyrin, olive oil and Tween 20
